Data: patent US20250134855A1, “CO[…] AND METHODS OF USING SAME” (LYKOS THERAPEUTICS, INC., priority 2022, published 2025)
Where a name gives a salt, the structure may show the parent alone. Read-outs that look alike come from different tables or passages of the source.

How the values were obtained:
[1] = cited from earlier work
[2] = Particle size of MDMA measured by laser diffraction; format: physicochemical
[3] = paroxetine 20 mg a day for three days; single 100 mg dose of MDMA; cited from earlier work
[4] = Forced degradation and storage stability of MDMA·HCl API; format: physicochemical
Text: The crystalline, anhydrous form (Form 1) of MDMA·HCl is used for clinical development and commercialization purpose.
The long-term chemical stability of MDMA·HCl, Form I appears in FIG. 9 and FIG. 10.

healthy individuals = test: Study MPKF: safety and tolerability (AEs, laboratory, vital signs); format: in vivo, human
Text: (§1) The MPKF was a Phase 1, open-label, randomized sequence, multi-dose, 2-period crossover food effect study in 16 healthy individuals. The MPKF study evaluated plasma concentrations of both MDMA and the active metabolite 3,4-methylenedioxyamphetamine (MDA). Summary PK Parameters of the preliminary data was based on interim analysis are presented in Table 12 Table 12 Table 12, and Table 13 Table 13 Table 13 for MDMA and MDA, respectively.
(§2) Participants remained at the clinical research unit (CRU) for each Dosing Session from the time of check-in on the night before dosing until discharge 48 hours after dosing for collection of serial blood samples for PK analysis and safety monitoring. IMP was administered on Day 1 following the treatment sequence to which the participant was randomized. An additional outpatient visit occurred 72 hours after dosing to collect a final PK sample, commensurate with the expected PK profiles of MDMA and MDA. Safety assessments were also performed at this visit.
(§3) The washout period between Dosing Sessions was at least 14 days. If a participant experienced emesis within 4 hours of administration, they were to be withdrawn from the study and replaced with a new participant. An End of Study Visit was performed 2 to 10 days after the completion of the final Dosing Session 72-hour follow-up. An informal interim analysis was planned to be conducted after at least 5 participants completed at least 1 Dosing Session to examine PK variability.

CYP2D6 = CYP2D6 (Homo sapiens, UniProt P10635); test: CYP2D6 inhibition
Sequence of CYP2D6 (P10635 whole entry): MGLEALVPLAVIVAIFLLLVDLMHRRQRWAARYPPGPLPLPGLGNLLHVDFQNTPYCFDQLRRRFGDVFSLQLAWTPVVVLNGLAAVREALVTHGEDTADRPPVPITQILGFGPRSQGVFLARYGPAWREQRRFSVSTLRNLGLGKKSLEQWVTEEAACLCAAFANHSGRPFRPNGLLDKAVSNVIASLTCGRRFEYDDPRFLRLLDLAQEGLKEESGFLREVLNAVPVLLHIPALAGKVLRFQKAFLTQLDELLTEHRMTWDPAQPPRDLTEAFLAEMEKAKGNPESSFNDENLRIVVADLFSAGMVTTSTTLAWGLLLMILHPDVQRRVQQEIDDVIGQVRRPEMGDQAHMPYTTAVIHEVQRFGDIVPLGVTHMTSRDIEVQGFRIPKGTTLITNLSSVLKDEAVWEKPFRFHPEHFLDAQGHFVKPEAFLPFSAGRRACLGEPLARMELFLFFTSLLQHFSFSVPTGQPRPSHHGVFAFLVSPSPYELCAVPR

[5] = Study MPKF: plasma pharmacokinetics of MDMA and MDA, single 120 mg MDMA·HCl, fasted/fed; format: in vivo, human; conditions: for Vd: read-out: volume of distribution
Text: as §1
Participants were randomized to receive 1 of 2 conditions before the other: • Fasted Treatment: at least 10 hours of fasting followed by administration of MDMA HCl with 240 mL water. • Fed Treatment: at least 10 hours of fasting followed by a high-fat (approximately 50% of total caloric content of the meal) and high-calorie (approximately 800 to 1000 calories) meal was consumed within 30 minutes prior to IMP administration.
as §2, §3
The API was a white crystalline powder of pharmaceutical quality, made according to current Good Manufacturing Practices (cGMP) for human use.
Participants: Sixteen healthy individuals were recruited for the study.
Intervention: The study was conducted as a Phase 1, open-label, randomized sequence, multi-dose, 2-period crossover food effect study. Each participant received multiple doses of MDMA, and plasma concentrations of both MDMA and the active metabolite MDA were measured.
Sample Collection: Blood samples were collected at various time points up to 72 hours after dosing. The samples were analyzed using validated liquid chromatography-tandem mass spectrometry (LC-MS/MS) methods.
Data Analysis: The summary PK parameters were presented in Table 12 for MDMA and Table 13 for MDA. The data were analyzed using descriptive statistics, and the mean and standard deviation were calculated. The results were compared between the two periods and analyzed for food effects. Statistical analyses were performed using appropriate methods, such as analysis of variance (ANOVA) and paired t-tests. A p-value of less than 0.05 was considered statistically significant.

[6] = Stress-tests of thermal stability of MDMA·HCl; conditions: 70-80° C.
healthy subjects = test: QTc interval, randomized crossover study; format: in vivo, human
Description: The effect of MDMA·HCl on the QTc interval was evaluated in a randomized, crossover study in N healthy subjects.

[7] = Solubility and permeability of MDMA·HCl
CYPs = test: CYP induction and inhibition of CYPs other than CYP2D6

For `CNC(C)Cc1ccc2c(c1)OCO2.Cl` (stereo not drawn) [Form I], the “relative stability of Forms I-III” value ([1]; polymorphic screening) is given as “most stable of Forms I-III”.
In the case of `CNC(C)Cc1ccc2c(c1)OCO2.Cl` (stereo not drawn) [CJS194-1], the Dv10 [2] is reported as 29.0 μm, the Dv50 [2] is reported as 170 μm and the Dv90 [2] is reported as 342 μm.
For `CNC(C)Cc1ccc2c(c1)OCO2.Cl` (stereo not drawn) [Form III], the “time to spontaneous conversion to Form I” value ([1]; storage at ambient conditions) is given as 2.5 weeks.
In the case of `CNC(C)Cc1ccc2c(c1)OCO2.Cl` (stereo not drawn) [Input 201101], the Dv10 [2] is reported as 376 μm, the Dv50 [2] is reported as 512 μm and the Dv90 [2] is reported as 844 μm.
Compound `CNC(C)Cc1ccc2c(c1)OCO2.Cl` (stereo not drawn) [CJS194-4] has a Dv10 [2] of 23.8 μm, a Dv50 [2] of 161 μm and a Dv90 [2] of 353 μm.
For `Fc1ccc([C@@H]2CCNC[C@H]2COc2ccc3c(c2)OCO3)cc1` [Paroxetine, reference compound], the “increase of AUC0-inf of MDMA” value [3] is given as 27% and the “increase of Cmax of MDMA” value [3] is given as 17%.
With `CNC(C)Cc1ccc2c(c1)OCO2` (stereo not drawn) [MDMA·HCl, MDMA hydrochloride] the “time over which long term chemical stability remains constant” value ([4]; 25 degrees celsius at 60% RH, no change in appearance or increase in degradation products) was “up to 60 months”, the forced degradation ([4]; 7 days (FIG. 8)) was “minimal degradation” and the “time over which chemical stability is not affected” value ([4]; higher humidity and temperature, 40 degrees celsius at 75% RH (FIG. 11)) was “up to 12 months”. The “participants with nausea and vomiting” value (healthy individuals; fasted session) was 12.5%, the “SAEs and AESI” value (healthy individuals; in vivo) was “No SAEs nor AESI were reported” and the overall tolerability (healthy individuals; single dose of 120 mg MDMA HCl) was “well tolerated”. For the same compound, the “participants reporting TEAEs” value (healthy individuals; single dose of 120 mg MDMA HCl) was 37.5%, the participants with headache (healthy individuals; single dose of 120 mg MDMA HCl) was 31.3% and the CYP2D6 inhibition (CYP2D6) was “strong CYP2D6 inhibitor”. The “effect of food on exposure” value ([5]; high-fat meal vs fasting, single 120 mg MDMA·HCl) was “not affected by food”, the half-life ([5]; human, plasma, oral, 120 mg, single 120 mg dose of MDMA·HCl, fasting, read-out: t1/2 (converted)) was 9 h and the Vd ([5]; human, plasma, oral, single 100 mg dose of MDMA·HCl) was 372 L. For the same compound, the Vd ([5]; human, plasma, oral, single 120 mg dose of MDMA·HCl) was 430 L, the “stability in stress-tests, duration” value [6] was 72 h and the “increase in heart rate” value (healthy subjects; healthy subjects) was greater than 10 bpm. The QTc prolongation (healthy subjects; therapeutic dose, totality of nonclinical and clinical data) was “lack of clinically relevant QTc prolongation”, the solubility [7] was “high” and the permeability ([7]; not told) was “high”. For the same compound, the “induction of CYPs” value (CYPs) was “not an inducer of CYPs” and the “inhibition of CYPs other than CYP2D6” value (CYPs; human) was “did not inhibit CYPs other than CYP2D6 in a clinically meaningful manner”.
For `CNC(C)Cc1ccc2c(c1)OCO2.Cl` (stereo not drawn) [CJS194-3], the Dv10 [2] was 20.9 μm, the Dv50 [2] was 134 μm and the Dv90 [2] was 326 μm.
For `CNC(C)Cc1ccc2c(c1)OCO2.Cl` (stereo not drawn) [CJS194-2], the Dv10 [2] was 20.0 μm, the Dv50 [2] was 135 μm and the Dv90 [2] was 326 μm.
Work on `CNC(C)Cc1ccc2c(c1)OCO2.Cl` (stereo not drawn) [CJS194-5] yielded a Dv10 [2] of 23.4 μm, a Dv50 [2] of 151 μm and a Dv90 [2] of 341 μm.
